Laboratory results from PMC10850047, “Exploring the impact of PEGylation on pharmacokinetics: a size-dependent effect of polyethylene glycol on prostate-specific membrane antigen inhibitors” (EJNMMI Research, 2024).
Where two headings read alike, the source gives them in different places.

What was measured:
[1] = tested on: LNCaP tumors; assay: Micro-PET/CT blocking experiment with 2-PMPA, LNCaP tumor model; format: in vivo, mice; conditions: 40 nmol 2-PMPA 30 min before radioligand, static scan 60 min later
Experimental: (§1) To perform imaging studies, the male mice bearing LNCaP tumors were injected with the corresponding radioligand (~ 2.5 MBq; 100 μL) via their tail veins. The micro-PET/CT scans (Inveon PET, Siemens) were conducted at 10, 30, 60, and 120 min after injection. The mice were anesthetized and maintained under 2% isoflurane in oxygen at a flow rate of 2 L/min during the 2-h imaging study. First, a 10 min static PET imaging acquisition was carried out, followed by a 10 min CT scan for localization and attenuation correction. Data analysis was performed using Inveon Research Workplace software. For PC3-PIP tumor model, the imaging studies were performed with micro-PET/SPECT/CT (Inliview-3000B, Novel Medical). Data analysis was performed using Nmsoft-Al ws v1.7–1 software.
(§2) To evaluate the specificity of radioligands, blocking experiments were performed. In brief, 40 nmol of the PSMA inhibitor 2-PMPA was administered, followed by the injection of approximately 2.6 MBq of radioligands after 30 min. Then a static scan of micro-PET/CT was performed 60 min later.

[2] = tested on: LNCaP tumor-bearing NOD/SCID mice; conditions: mouse, in vivo
[3] = tested on: PC3-PIP tumor-bearing balb/c-nu mice; assay: Biodistribution in PC3-PIP tumor model; format: in vivo; conditions: mean ± SD (n=5)
Experimental: All animal experiments were performed with the approval of the institutional animal ethics committee. Male NOD/SCID mice (5 − 6 weeks old) implanted with LNCaP cells were used for imaging and biodistribution experiments as previously described. The mice were imaged or used in biodistribution studies once the tumor grew to 8 − 10 mm in diameter over a period of 4 − 5 weeks. At the same time, male balb/c-nu mice (5 − 6 weeks old) implanted with PC3-PIP cells were used as an alternative tumor model for imaging and biodistribution experiments.
To conduct biodistribution studies, male mice bearing LNCaP or PC3-PIP tumors with an average body weight of approximately 20 ± 5 g and a tumor diameter of 8 − 10 mm were administered a bolus injection of 2.5 MBq of the corresponding radioligand via the tail vein. After 30, 60, and 120 min, the mice were anesthetized with isoflurane and subsequently euthanized by CO2 asphyxiation. Blood was drawn, and the organs of interest were promptly harvested, blotted dry, and weighed. The radioactivity of the collected mouse organs was measured and expressed as the percentage of the injected dose per gram of tissue (%ID/g). Each group consisted of at least five mice.

[4] = tested on: LNCaP cells; assay: Uptake and internalization in LNCaP cells; format: cell-based, human; conditions: 120 min incubation, normalized to 10^6 cells
Experimental: LNCaP prostate cancer cell line obtained from the American Type Culture Collection (ATCC, Manassas, VA) was used for cell affinity studies. […] The supernatant was disposed, and the cell pellet was resuspended in a culture medium, and LNCaP cells (150,000 cells/well) were counted with a hemocytometer and seeded in poly-L-lysine-coated 24-well plates used in cell binding studies. The cells were then allowed to grow at 37 °C for 48 h. PC3-PIP cells provided by Professor Xiaoyuan Chen (Singapore) require additional Puromycin (2 µg/ml) in addition to the appealed culture conditions.

[5] = tested on: PC3-PIP tumors; assay: Micro-PET/CT blocking experiment with 2-PMPA, PC3-PIP tumor model; format: in vivo, mice; conditions: identical methodology
Experimental: as §1, §2

[6] = Radiochemical stability in PBS at 37 °C; format: physicochemical; conditions: 2 h
Experimental: (§3) The radiochemical purity of samples incubated in PBS at each time point was determined using RP-HPLC. For the samples in human serum, a pretreatment step was applied. Briefly, the human serum samples underwent precipitation with acetonitrile, and the radiochemical purity of each supernatant aliquot was determined using RP-HPLC after centrifugation for 5 min at 10,000 rpm. The experiments were performed in triplicate.

[7] = Radiochemical stability in human serum at 37 °C; format: in vitro ADME; conditions: 2 h
Experimental: as §3

[8] = molecular target: T1, PSMA (Homo sapiens, UniProt Q04609); assay: Competitive cell binding assay against [68Ga]Ga-PSMA-11 on LNCaP cells; conditions: competition with [68Ga]Ga-PSMA-11, natGa-labeled standards, 1 h 37 °C
T1 construct: host or cells: LNCaP
T1 sequence (Q04609 whole entry): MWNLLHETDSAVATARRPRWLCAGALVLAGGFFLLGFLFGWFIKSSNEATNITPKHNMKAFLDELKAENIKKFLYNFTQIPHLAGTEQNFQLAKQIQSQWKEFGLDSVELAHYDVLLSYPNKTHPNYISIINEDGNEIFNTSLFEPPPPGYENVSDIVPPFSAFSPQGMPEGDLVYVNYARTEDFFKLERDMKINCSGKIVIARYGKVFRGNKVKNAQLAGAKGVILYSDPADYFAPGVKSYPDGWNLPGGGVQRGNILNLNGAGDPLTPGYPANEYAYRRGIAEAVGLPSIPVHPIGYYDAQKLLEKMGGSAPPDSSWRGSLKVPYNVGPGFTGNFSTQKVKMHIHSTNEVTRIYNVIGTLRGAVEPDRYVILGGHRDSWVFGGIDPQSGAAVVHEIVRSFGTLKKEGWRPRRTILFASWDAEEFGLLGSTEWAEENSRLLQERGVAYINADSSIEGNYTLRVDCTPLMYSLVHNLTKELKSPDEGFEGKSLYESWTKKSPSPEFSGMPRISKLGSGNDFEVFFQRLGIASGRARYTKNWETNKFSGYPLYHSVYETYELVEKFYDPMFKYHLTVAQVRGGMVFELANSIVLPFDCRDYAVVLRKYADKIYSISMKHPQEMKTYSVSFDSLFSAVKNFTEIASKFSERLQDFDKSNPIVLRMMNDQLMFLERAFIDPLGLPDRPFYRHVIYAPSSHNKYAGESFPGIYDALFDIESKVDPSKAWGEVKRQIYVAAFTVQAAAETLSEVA
Experimental: LNCaP prostate cancer cell line obtained from the American Type Culture Collection (ATCC, Manassas, VA) was used for cell affinity studies. The cells were grown in a meilunbio RPMI 1640 medium (ATCC modified) supplemented with 10% fetal bovine serum and 1% streptomycin/penicillin (Thermo Fisher Scientific, USA) at 37 °C in a humidified 5% CO2 atmosphere. Two days (48 ± 2 h) prior to in vitro experiments, the cells were harvested using trypsin-ethylenediaminetetraacetic acid (EDTA; 0.25% trypsin, 0.02% EDTA) in PBS and centrifuged. The supernatant was disposed, and the cell pellet was resuspended in a culture medium, and LNCaP cells (150,000 cells/well) were counted with a hemocytometer and seeded in poly-L-lysine-coated 24-well plates used in cell binding studies. The cells were then allowed to grow at 37 °C for 48 h. PC3-PIP cells provided by Professor Xiaoyuan Chen (Singapore) require additional Puromycin (2 µg/ml) in addition to the appealed culture conditions. Detailed information regarding uptake and internalization experiments can be found in the previous report.
In order to determine the binding affinity, a competitive cell binding assay was performed. […] The total radioactivity in each well was measured with a gamma counter. […]

O=C(O)CC[C@H](NC(=O)N[C@@H](CCCCN(CC(=O)NCCOCCOCCOCCOCCNC(=O)CN1CCN(CC(=O)O)CCN(CC(=O)O)CCN(CC(=O)O)CC1)C(=O)C1c2ccccc2-c2ccccc21)C(=O)O)C(=O)O.[68Ga] [[^68Ga]Ga-PP4-WD]
Radioactivity upon blocking with 2-PMPA [1]: substantially reduced radioactivity
Renal uptake reduced by a factor compared to [68Ga]Ga-Flu-1 [2]: 40
Renal uptake, fold less compared to [68Ga]Ga-Flu-1 [2]: tenfold
Bone uptake ([2]; 0.5 h): 0.36±0.09 %ID/g
Tumor uptake ([2]; 0.5 h): 33.45 ± 3.40 %ID/g
Bone uptake ([2]; 1 h): 0.39±0.22 %ID/g
Tumor uptake ([2]; 1 h): 39.28 ± 3.25 %ID/g
Bone uptake ([2]; 2 h): 0.26±0.06 %ID/g
Tumor uptake ([2]; 2 h): 25.75 ± 2.43 %ID/g
Blood uptake ([3]; 30 min p.i.): 1.07±0.47 %ID/g
Bone uptake ([3]; 30 min p.i.): 0.41±0.17 %ID/g
Brain uptake ([3]; 30 min p.i.): 0.05±0.04 %ID/g
Heart uptake ([3]; 30 min p.i.): 0.39±0.26 %ID/g
Kidney uptake ([3]; 30 min p.i.): 17.85±4.66 %ID/g
Liver uptake ([3]; 30 min p.i.): 0.36±0.14 %ID/g
Lung uptake ([3]; 30 min p.i.): 0.99±0.22 %ID/g
Muscle uptake ([3]; 30 min p.i.): 0.36±0.25 %ID/g
Salivary uptake ([3]; 30 min p.i.): 0.46±0.16 %ID/g
Small int (small intestine) uptake ([3]; 30 min p.i.): 0.33±0.15 %ID/g
Spleen uptake ([3]; 30 min p.i.): 1.06±0.89 %ID/g
Stomach uptake ([3]; 30 min p.i.): 0.44±0.18 %ID/g
Tumor uptake ([3]; 30 min p.i.): 26.49±3.34 %ID/g
Blood uptake ([3]; 60 min p.i.): 0.19±0.05 %ID/g
Bone uptake ([3]; 60 min p.i.): 0.11±0.02 %ID/g
Brain uptake ([3]; 60 min p.i.): 0.02±0.01 %ID/g
Heart uptake ([3]; 60 min p.i.): 0.06±0.01 %ID/g
Kidney uptake ([3]; 60 min p.i.): 2.96±1.04 %ID/g
Liver uptake ([3]; 60 min p.i.): 0.16±0.03 %ID/g
Lung uptake ([3]; 60 min p.i.): 0.23±0.05 %ID/g
Muscle uptake ([3]; 60 min p.i.): 0.04±0.02 %ID/g
Salivary uptake ([3]; 60 min p.i.): 0.17±0.09 %ID/g
Small int (small intestine) uptake ([3]; 60 min p.i.): 0.1±0.04 %ID/g
Spleen uptake ([3]; 60 min p.i.): 0.22±0.05 %ID/g
Stomach uptake ([3]; 60 min p.i.): 0.09±0.02 %ID/g
Tumor uptake ([3]; 60 min p.i.): 27.43 ± 1.81 %ID/g
Blood uptake ([3]; 120 min p.i.): 0.17±0.04 %ID/g
Bone uptake ([3]; 120 min p.i.): 0.08±0.03 %ID/g
Brain uptake ([3]; 120 min p.i.): 0.01±0.01 %ID/g
Heart uptake ([3]; 120 min p.i.): 0.06±0.03 %ID/g
Kidney uptake ([3]; 120 min p.i.): 1.21±0.30 %ID/g
Liver uptake ([3]; 120 min p.i.): 0.14±0.05 %ID/g
Lung uptake ([3]; 120 min p.i.): 0.13±0.07 %ID/g
Muscle uptake ([3]; 120 min p.i.): 0.04±0.03 %ID/g
Salivary uptake ([3]; 120 min p.i.): 0.08±0.03 %ID/g
Small int (small intestine) uptake ([3]; 120 min p.i.): 0.07±0.03 %ID/g
Spleen uptake ([3]; 120 min p.i.): 0.13±0.10 %ID/g
Stomach uptake ([3]; 120 min p.i.): 0.06±0.03 %ID/g
Tumor uptake ([3]; 120 min p.i.): 19.42±4.00 %ID/g
Internalization in LNCaP cells [4]: 9.36 ± 1.70%
Uptake in LNCaP cells [4]: 26.30 ± 2.06%
Outcome of blocking imaging with 2-PMPA [5]: in concordance with those observed in the LNCaP tumor model
Radiochemical purity after incubation in PBS [6]: 97%
Radiochemical purity after incubation in human serum [7]: 96.83 ± 0.87%
IC50 [8]: 8.06 ± 0.91 nM
